Here are results for two compounds from patent US20230088286A1, “USP7 INHIBITOR FOR USE IN THE TREATMENT OF CANCER” (ALMAC DISCOVERY LIMITED, priority 2020, published 2023).

The subject of data set [1] is VEGFA mRNA. Briefly: RNA-seq of hypoxia activated HDF, VEGFA mRNA. The class given is cell-based, human. The procedure:
Afterwards RNA was extracted and analysed by RNA-seq. […] To evaluate which signalling pathways are induced in hypoxia activated fibroblasts, a comparative pathway analysis was performed on of samples coming from both, non-activated (normoxia) and hypoxia activated primary fibroblasts.

Data set [2] in a line: Hep CLhep (m). In kind it is in vitro ADME, mouse.
Data set [3] has as its target 2D6 (Homo sapiens, UniProt P10635). Briefly: Cyp inhibition 2D6. The settings on record: read-out: Cyps: 2D6. The class given is in vitro ADME.
Data set [4] is described as follows: LogD7.4. The class given is physicochemical. The settings on record: pH 7.4.

2D6, sequence (P10635 whole entry): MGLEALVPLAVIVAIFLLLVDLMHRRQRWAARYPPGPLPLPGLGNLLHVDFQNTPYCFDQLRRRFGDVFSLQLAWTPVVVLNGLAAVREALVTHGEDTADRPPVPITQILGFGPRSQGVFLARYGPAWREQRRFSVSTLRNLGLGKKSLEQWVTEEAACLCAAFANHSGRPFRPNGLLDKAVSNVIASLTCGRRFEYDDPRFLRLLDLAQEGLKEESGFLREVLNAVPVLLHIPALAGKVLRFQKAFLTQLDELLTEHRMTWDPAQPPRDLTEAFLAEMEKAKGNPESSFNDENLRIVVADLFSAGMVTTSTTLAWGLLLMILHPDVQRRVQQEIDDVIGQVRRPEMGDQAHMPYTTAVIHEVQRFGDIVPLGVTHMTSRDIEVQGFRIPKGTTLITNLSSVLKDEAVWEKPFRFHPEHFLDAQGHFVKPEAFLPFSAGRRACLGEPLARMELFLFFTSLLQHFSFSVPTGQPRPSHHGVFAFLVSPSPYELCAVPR

For the compound `C[C@H](CC(=O)N1CCC(O)(Cn2cnc3c(-c4ccc(CN)cc4)n(C)nc3c2=O)CC1)c1ccccc1` [AD-04, (R)-3-(4-(Aminomethyl)phenyl)-6-((4-hydroxy-1-(3-phenylbutanoyl)piperidin-4-yl)methyl)-2-methyl-2H-pyrazolo[4,3-d]pyrimidin-7(6H)-one], in data set [1] (hypoxia, 24 hours), the “mRNA expression of anti-angiogenic short (191aa) isoform” value was “up-regulated” and the “mRNA expression of pro-angiogenic long (371aa) isoform” value is given as “strongly down-regulated”. Also, the “VEGF mRNA levels” value in data set [1] (hypoxic conditions) is “down-regulated”.
Turning to `CC1(C(=O)N2CCC(O)(Cn3cnc4c(cc(Cl)n4-c4ccc5c(c4)CCO5)c3=O)CC2)CC1` [ADC-159, 6-Chloro-7-(2,3-dihydrobenzofuran-5-yl)-3-((4-hydroxy-1-(1-methylcyclopropane-1-carbonyl)piperidin-4-yl)methyl)-3,7-dihydro-4H-pyrrolo[2,3-d]pyrimidin-4-One], the “Hep CLhep (m)” value in data set [2] amounted to 78. Besides, the IC50 in data set [3] was over 20 µM. In data set [4], this compound gave a LogD7.4 of 2.5.
